Data reported in US20260345649A1, “PHARMACEUTICAL COMPOSITION FOR DESTRUCTION OF TUMOR BLOOD VESSELS” (SAMSUNG MEDICAL FOUNDATION, priority 2022, published 2026).

Legend:
HUVEC [1] = assay: Intracellular ROS generation in HUVEC (DCF-DA staining); assay type: cell-based, human
Method: The effect of D-glucose on intracellular reactive oxygen species (ROS) generation in HUVEC was measured using the DCF-DA staining method. HUVEC cells (25,000 per well) were cultured in a 96-well microplate with a dark, clear bottom. After 24 hours of incubation, the cells were treated with D-glucose at concentrations of 10 mM, 25 mM, 50 mM, 100 mM, 125 mM, 150 mM, 200 mM, and 250 mM. Following drug treatment, the culture medium was removed, and the cells were washed with 100 μL/well of Hanks' Balanced Salt Solution (HBSS) buffer. After washing, 100 μL/well of diluted DCFDA was added, and the […]. The cells were then incubated in diluted DCFDA solution for 45 minutes at 37 °C in the dark. Following incubation, the DCFDA solution was removed, and 100 μL of HBSS buffer was added. Fluorescence was immediately measured using a fluorescence plate reader at Ex/Em=485/535 nm.
The effect of L-glucose on intracellular ROS generation was measured using the same method as for D-glucose.

HUVEC [2] = assay: 5-FU cytotoxicity on HUVEC according to D-glucose or L-glucose concentration (MTS); assay type: cell-based, human
Method: An MTS cell proliferation assay was conducted to evaluate the cytotoxic effect of 5-FU on HUVEC according to D-glucose concentration under different pH conditions.
The cells were then incubated for an additional 24 hours in DMEM medium containing various concentrations of glucose.
To assess the cytotoxic effect of L-glucose on HUVEC, the experiment was conducted in the same manner as described in Example 2, Section 3.
To assess the cytotoxic effect of D-glucose or L-glucose on HUVEC, the experiment was conducted in the same manner as described in Example 2, Section 3.

HUVEC [3] = assay: HUVEC cytotoxicity according to L-NMMA concentration (MTS); assay type: cell-based, human; conditions: L-NMMA alone, FIG. 19
Method: The cells were then incubated for an additional 24 hours in DMEM medium containing various L-NMMA concentrations. Following incubation, the cells were washed twice with PBS, and 100 μL of fresh DMEM growth medium was added. The cells were then further incubated for 48 hours.

blood pressure = conditions: administered into blood vessels; cited from earlier work
platelets = conditions: L-NMMA alone, physiological conditions; cited from earlier work
hexokinase = conditions: role: substrate; first enzyme in glycolysis; cited from earlier work
human body = conditions: in vivo; cited from earlier work
[4] = tested on: human gastric cancer cells; assay: Human gastric cancer cell xenograft in nude mice, bevacizumab local injection; assay type: in vivo, nude mice (Crj: BALB/c-nu/nu), human tumor cells; conditions: 1 mg bevacizumab, three times at one-week intervals
Method: The animals used in the experiment were three male nude mice (Crj: BALB/c-nu/nu, male), each weighing approximately 30 g and five weeks old, produced by Orient. The mice underwent a one-week acclimatization period in the laboratory before use. Human gastric cancer cells (5×10^6 cells/100 μL in PBS) were xenografted into the subcutaneous fat layer on the dorsal side of each nude mouse. The tumor size was measured periodically, and drug administration was initiated when the tumor reached a diameter of 1 cm.
The experimental animals were administered 1 mg of bevacizumab by injecting 0.2 cc adjacent to the tumor three times at one-week intervals.

advanced gastric cancer = conditions: combined with fluoropyrimidine-cisplatin therapy; cited from earlier work
[5] = D-glucose, L-glucose and mixtures with 5-FU, FIG. 15

Molecule: O=C[C@H](O)[C@@H](O)[C@H](O)[C@H](O)CO [D-glucose]
- ROS generation with increasing concentration (HUVEC [1]; D-glucose 10 mM to 250 mM, FIG. 11A): increased
- cell viability (HUVEC [2]; D-glucose at both 5 mM and 25 mM, FIG. 13): significantly reduced cell viability
- cell viability (HUVEC [2]; [5]): significantly reduced cell viability

Molecule: CN=C(N)NCCC[C@H](N)C(=O)O [L-NMMA, N^G-Methyl-L-arginine]
- cell viability (HUVEC [3]): significantly reduced cell viability
- blood pressure (blood pressure): effectively increases blood pressure
- platelet activation in vivo (platelets): does not activate platelets in vivo

Molecule: O=C[C@@H](O)[C@H](O)[C@@H](O)[C@@H](O)CO [L-glucose]
- ROS generation with increasing concentration (HUVEC [1]; L-glucose, FIG. 11B): decreased
- cell viability (HUVEC [2]; [5]): significantly reduced cell viability
- cell viability, comparison among D-glucose, L-glucose and mixtures (HUVEC [2]; FIG. 15): more pronounced reduction in cell viability
- cell viability (HUVEC [2]; L-glucose at both 5 mM and 25 mM, FIG. 14): significantly reduced cell viability
- phosphorylation by hexokinase (hexokinase): not phosphorylated by hexokinase
- toxicity to the human body (human body): non-toxic to the human body

Molecule: bevacizumab: recombinant humanized monoclonal antibody designed to inhibit vascular endothelial growth factor (VEGF)
- tumor size for the following two months [4]: did not change
- tumor size in the third month [4]: began to increase
- tumor size four weeks after drug administration compared to before injection ([4]; P>0.05, FIG. 20): remained nearly unchanged
- progression-free survival and overall response rate (advanced gastric cancer): improves progression-free survival and overall response rate
